# Test results: US20260297134A1, “CYCLIC PEPTIDES AS PET IMAGING AGENTS OF GRANZYME B” (Merck Sharp & Dohme LLC, priority 2023, published 2026)
# pIC50, pKd: −log10 of the molar value. Bridge positions count the residues as written; N and C are the ends. Square brackets hold non-standard residues; d marks the D form. Peptide text beside a SMILES is read from it. * marks the point of attachment. X1 = O=C(O)CN1CCN(CC(=O)O)CC(Cc2ccc(NC(=S)*)cc2)N(CC(=O)O)CC1; NMeF = CN[C@@H](Cc1ccccc1)C(=O)O; NMeA = CN[C@@H](C)C(=O)O
# Tests used:
# [1] = Dynamic PET/CT scan in healthy rhesus monkey, biodistribution and clearance; format: in vivo, male rhesus monkey; conditions: i.v.
# Experimental: Healthy non-human primate: A 3 h dynamic PET/CT scan was performed in a healthy male rhesus monkey to determine whole body biodistribution and clearance properties in an additional species. Approximately 6 mCi of ^18F-labeled anti-granzyme-B peptide was intravenously injected in the animal. Attenuation correction was performed using low-dose CT scan. Regions of interests (ROI) were manually drawn over tissues of interest to determine mean standardized uptake value (SUVmean).
# [2] = biological target: human Granzyme B (hGranzyme B) (Homo sapiens, UniProt P10144); experiment: Surface Plasmon Resonance (SPR) binding to human Granzyme B; conditions: Table 8, 25° C.
# Sequence of human Granzyme B (hGranzyme B) (P10144 21-247): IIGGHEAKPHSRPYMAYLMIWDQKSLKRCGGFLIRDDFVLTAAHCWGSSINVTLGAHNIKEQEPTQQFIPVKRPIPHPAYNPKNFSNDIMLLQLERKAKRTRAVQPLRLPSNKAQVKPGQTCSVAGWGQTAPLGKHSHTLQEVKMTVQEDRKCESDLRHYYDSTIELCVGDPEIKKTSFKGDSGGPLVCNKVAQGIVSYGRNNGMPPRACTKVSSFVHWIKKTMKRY
# Experimental: All reagents and solvents were purchased from commercial sources and used “as is” unless otherwise noted. Reaction progress and synthetic intermediate analysis were assessed by LCMS (UV detection with ESI, APCI, or other mass detection) when applicable using a MeCN/water gradient with either TFA, formic acid, or NH4HCO3 modifier. Silica gel and reverse-phase flash column chromatography were conducted with commercially available pre-packed columns. Reverse-phase preparative HPLC purification was performed on preparative HPLC instruments with UV and MS detection using a MeCN/water gradient with either TFA, formic acid, or NH4OH modifier. Unless otherwise noted, all KD data presented in tables refers to the surface plasmon resonance assay that is described in the Biological Assay section.
# The kinetics of test peptide binding to human Granzyme B (hGranzyme B) was determined by SPR. All experiments were performed at 25° C. using the Biacore 8k+ instrument (Cytiva, Marlborough, MA). The Biacore 8k+ Insight Evaluation Software Version 3.0 was used to fit the data with a 1:1 binding model to determine the association rate constant ka (M^−1s^−1, where “M” equals molar and “s” equals seconds) and the dissociation rate constant kd (s^−1). These rate constants were used to calculate the equilibrium dissociation constant, KD (M)=kd/ka. To measure the binding kinetics of peptides of interest, surfaces were prepared by a capture method to a Series S Streptavidin (SA) chip using a 1×HBS-EP+ running buffer (Cytiva). hGranzyme B was diluted to 10 μg/mL in 1×HBS-EP+ and flowed over spot 2 of each flow cell on the chip at a flow rate of 10 μl/min for 20 s to achieve a level of capture of ~1100 RU. An unmodified spot 1 of each flow cell was used as a matrix binding control or reference surface. Binding kinetics were measured using single cycle kinetics at 25° C. by injecting 5 concentrations with 3-fold serial dilutions of test peptides from […] to 1 μM. Compound dilutions were performed manually in a running buffer containing 1×HBS-EP+(Cytiva), and a final concentration of 2% DMSO. The interaction analyses over hGranzyme B, were performed using a 120 s association time and a 900 s dissociation time. All experiments were conducted at a flow rate of […] with a data collection rate of 10 Hz.
# Peptide dilution series included 2 zero concentration points (no compound) which were averaged and subtracted from the peptide concentration injection as DMSO control responses. Binding data acquired from the reference surface (matrix binding control) were subtracted from the binding data for hGranzyme B surface on the chip to determine specific binding. Next, the association phase data were solvent corrected to account for any signal fluctuation throughout the experiment due to subtle DMSO concentration differences. Corrected response data were analyzed using the Biacore 8k+ Evaluation Software Version 3.0 according to the manufacturer. SPR data for representative compounds of the disclosure are found in Table 8.
# [3] = biological target: Human granzyme B (Homo sapiens, UniProt P10144); experiment: Granzyme B Biochemical Inhibition Assay; conditions: granzyme B 8 nM; 30 min preincubation, room temperature
# Sequence of Human granzyme B (P10144 21-247): as above
# Experimental: Compounds to be tested as inhibitors were manually prepared in a 2-fold serial dilutions in DMSO, spanning 200 μM to 0.39 μM in a Labcyte Echo qualified low dead volume 384-well plate. Then an ECHO acoustic liquid handler was used to dispense 125 nL of each compound from 384-well plate into a PerkinElmer Proxiplate-384 Plus F assay plate. For the positive control of inhibitor, (S)-3-((3S,6S)-3-((2S,3S)-2-acetamido-3-methylpentanamido)-4-oxo-1,2,3,4,6,7-hexahydroazepino[3,2,1-hi]indole-6-carboxamido)-4-oxobutanoic acid (see C. A. Willoughby et al./Bioorg. Med. Chem. Lett. 12 (2002) 2197-2200 2199) was used at 2 μM assay concentration. For no inhibition control, DMSO was used. Each compound was run in duplicate.
# Once the compounds were dispensed in the plates, enzyme mix and substrate mix were prepared. […] Subsequently, 3.125 μL of substrate mix were added to each well using the BioRaptr, reaching a final assay volume of 12.5 μL. and the plate was monitored using a Pherastar FS by 1 read per minute for 30 minutes in fluorescence mode, excitation wavelength is 400 nm and emission wavelength is 510 nm.
# The data analysis was performed first in excel, where the slopes of the measured fluorescence from each sample were determined using MARS software from BMG LABTECH. […]
pKd [2],SMILES,further results
9.30,"CC(C)[C@@H]1NC(=O)[C@H](CC(=O)O)NC(=O)[C@H](Cc2ccc(O)cc2)NC(=O)[C@H](Cc2ccc(O)cc2)NC(=O)[C@H](Cc2ccccc2)N(C)C(=O)[C@H](Cc2ccccc2)N(C)C(=O)[C@H](Cc2ccccc2)NC(=O)CSC[C@@H](C(=O)NCC(N)=O)NC(=O)[C@H](Cc2c[nH]cn2)NC(=O)[C@H](Cc2ccccc2)N(C)C(=O)[C@H](Cc2ccc(O)cc2)NC(=O)[C@H](C(C)C)NC(=O)[C@H](CC(=O)O)NC(=O)[C@H](C(C)C)NC(=O)[C@H](CC(=O)O)NC1=O [Compound 1a, *F.NMeF.NMeF.Y.Y.D.V.D.V.D.V.Y.NMeF.H.*C.G-NH2] ({CH2CO}-F[NMeF][NMeF]YYDVDVDVY[NMeF]HCG-NH2; thioether N-15)",pIC50 [3]: 6.95
8.96,"CC(C)[C@@H]1NC(=O)[C@H](CC(=O)O)NC(=O)[C@H](Cc2ccc(O)cc2)NC(=O)[C@H](Cc2ccc(O)cc2)NC(=O)[C@H](Cc2ccccc2)N(C)C(=O)[C@H](Cc2ccccc2)N(C)C(=O)[C@H](Cc2ccccc2)NC(=O)CSC[C@@H](C(=O)NCC(=O)NCC(=O)N[C@@H](CCCCN)C(N)=O)NC(=O)[C@H](Cc2c[nH]cn2)NC(=O)[C@H](Cc2ccccc2)N(C)C(=O)[C@H](Cc2ccc(O)cc2)NC(=O)[C@H](C(C)C)NC(=O)[C@H](CC(=O)O)NC(=O)[C@H](C(C)C)NC(=O)[C@H](CC(=O)O)NC1=O [Compound 2a, *F.NMeF.NMeF.Y.Y.D.V.D.V.D.V.Y.NMeF.H.*C.G.G.K-NH2] ({CH2CO}-F[NMeF][NMeF]YYDVDVDVY[NMeF]HCGGK-NH2; thioether N-15)",
8.59,"CC(C)[C@@H]1NC(=O)[C@H](CC(=O)O)NC(=O)[C@H](Cc2ccc(O)cc2)NC(=O)[C@H](Cc2ccc(O)cc2)NC(=O)[C@H](Cc2ccccc2)N(C)C(=O)[C@H](Cc2ccccc2)N(C)C(=O)[C@H](Cc2ccccc2)NC(=O)CSC[C@@H](C(=O)NCC(=O)N[C@@H](CCCCN)C(N)=O)NC(=O)[C@H](Cc2c[nH]cn2)NC(=O)[C@H](Cc2ccccc2)N(C)C(=O)[C@H](Cc2ccc(O)cc2)NC(=O)[C@H](C(C)C)NC(=O)[C@H](CC(=O)O)NC(=O)[C@H](C(C)C)NC(=O)[C@H](CC(=O)O)NC1=O [Compound 12a, *F.NMeF.NMeF.Y.Y.D.V.D.V.D.V.Y.NMeF.H.*C.G.K-NH2] ({CH2CO}-F[NMeF][NMeF]YYDVDVDVY[NMeF]HCGK-NH2; thioether N-15)",

# The next lines start with the molecule.
SMILES,pKd [2],further results
"CC(C)[C@@H]1NC(=O)[C@H](CC(=O)O)NC(=O)[C@H](Cc2ccc(O)cc2)NC(=O)[C@H](Cc2ccc(O)cc2)NC(=O)[C@H](Cc2ccccc2)N(C)C(=O)[C@H](Cc2ccccc2)N(C)C(=O)[C@H](Cc2ccccc2)NC(=O)CSC[C@@H](C(=O)NCC(=O)NCC(=O)N[C@@H](CCCCNC(=S)Nc2ccc(CC3CN(CC(=O)O)CCN(CC(=O)O)CCN3CC(=O)O)cc2)C(N)=O)NC(=O)[C@H](Cc2c[nH]cn2)NC(=O)[C@H](Cc2ccccc2)N(C)C(=O)[C@H](Cc2ccc(O)cc2)NC(=O)[C@H](C(C)C)NC(=O)[C@H](CC(=O)O)NC(=O)[C@H](C(C)C)NC(=O)[C@H](CC(=O)O)NC1=O (some centres unmarked) [Compound 6a, *F.NMeF.NMeF.Y.Y.D.V.D.V.D.V.Y.NMeF.H.*C.G.G.K(^18F-AlF-NOTA)-NH2] ({CH2CO}-F[NMeF][NMeF]YYDVDVDVY[NMeF]HCGGK(X1)-NH2; thioether N-15)",,"excretion route ([1]; PET images): primarily excreted through renal route; blood pool clearance ([1]; approximately 6 mCi, PET): rapid blood pool clearance; liver uptake duration ([1]; quantitative analyses of PET images): prolonged liver uptake; uptake in liver and kidneys ([1]; within first 20 minutes of injection): high uptake in liver and kidneys within first 20 minutes of injection"
"CC(C)[C@@H]1NC(=O)[C@H](CC(=O)O)NC(=O)[C@H](Cc2ccc(O)cc2)NC(=O)[C@H](Cc2ccc(O)cc2)NC(=O)[C@H](C)NC(=O)[C@H](Cc2ccccc2)N(C)C(=O)[C@H](Cc2ccccc2)NC(=O)CSC[C@@H](C(=O)NCC(N)=O)NC(=O)[C@H](Cc2c[nH]cn2)NC(=O)[C@H](Cc2ccccc2)N(C)C(=O)[C@H](Cc2ccc(O)cc2)NC(=O)[C@H](C(C)C)NC(=O)[C@H](CC(=O)O)NC(=O)[C@H](C(C)C)NC(=O)[C@H](CC(=O)O)NC1=O [Compound 18a, *F.NMeF.A.Y.Y.D.V.D.V.D.V.Y.NMeF.H.*C.G-NH2] ({CH2CO}-F[NMeF]AYYDVDVDVY[NMeF]HCG-NH2; thioether N-15)",7.17,
"CC(C)[C@@H]1NC(=O)[C@H](CC(=O)O)NC(=O)[C@H](Cc2ccc(O)cc2)NC(=O)[C@H](Cc2ccc(O)cc2)NC(=O)[C@H](Cc2ccccc2)N(C)C(=O)[C@H](Cc2ccccc2)N(C)C(=O)[C@H](Cc2ccccc2)NC(=O)CSC[C@@H](C(=O)NCC(=O)NCC(=O)N[C@@H](CCCCNC(=S)Nc2ccc(CC3CN(CC(=O)O)CCN(CC(=O)O)CCN3CC(=O)O)cc2)C(N)=O)NC(=O)[C@H](Cc2c[nH]cn2)NC(=O)[C@H](Cc2ccccc2)N(C)C(=O)[C@H](Cc2ccc(O)cc2)NC(=O)[C@H](C(C)C)NC(=O)[C@H](CC(=O)O)NC(=O)[C@H](C(C)C)NC(=O)[C@H](CC(=O)O)NC1=O (some centres unmarked) [Compound 3a, *F.NMeF.NMeF.Y.Y.D.V.D.V.D.V.Y.NMeF.H.*C.G.G.K(NOTA)-NH2] ({CH2CO}-F[NMeF][NMeF]YYDVDVDVY[NMeF]HCGGK(X1)-NH2; thioether N-15)",9.00,
"CC(C)[C@@H]1NC(=O)[C@H](CC(=O)O)NC(=O)[C@H](Cc2ccc(O)cc2)NC(=O)[C@H](Cc2ccc(O)cc2)NC(=O)[C@H](Cc2ccccc2)N(C)C(=O)[C@H](C)N(C)C(=O)[C@H](Cc2ccccc2)NC(=O)CSC[C@@H](C(=O)NCC(N)=O)NC(=O)[C@H](Cc2c[nH]cn2)NC(=O)[C@H](Cc2ccccc2)N(C)C(=O)[C@H](Cc2ccc(O)cc2)NC(=O)[C@H](C(C)C)NC(=O)[C@H](CC(=O)O)NC(=O)[C@H](C(C)C)NC(=O)[C@H](CC(=O)O)NC1=O [Compound 25a, *F.NMeA.NMeF.Y.Y.D.V.D.V.D.V.Y.NMeF.H.*C.G-NH2] ({CH2CO}-F[NMeA][NMeF]YYDVDVDVY[NMeF]HCG-NH2; thioether N-15)",6.70,
